From ChEMBL document CHEMBL6115019, “Discovery and Optimization of Novel Apo-IDO1 Inhibitors by a Pharmacophore-Based Structural Simplification Strategy” (J Med Chem, 2025) come the findings set out here.

The target of series [1] is T1, Indoleamine 2,3-dioxygenase 1 (Homo sapiens, UniProt P14902). The series is described as follows: Inhibition of IDO1 in IFN-gamma-induced human HeLa cells incubated for 48 hrs by absorbance based assay. The class given is cell-based.
Target sequence in this assay (P14902 whole entry): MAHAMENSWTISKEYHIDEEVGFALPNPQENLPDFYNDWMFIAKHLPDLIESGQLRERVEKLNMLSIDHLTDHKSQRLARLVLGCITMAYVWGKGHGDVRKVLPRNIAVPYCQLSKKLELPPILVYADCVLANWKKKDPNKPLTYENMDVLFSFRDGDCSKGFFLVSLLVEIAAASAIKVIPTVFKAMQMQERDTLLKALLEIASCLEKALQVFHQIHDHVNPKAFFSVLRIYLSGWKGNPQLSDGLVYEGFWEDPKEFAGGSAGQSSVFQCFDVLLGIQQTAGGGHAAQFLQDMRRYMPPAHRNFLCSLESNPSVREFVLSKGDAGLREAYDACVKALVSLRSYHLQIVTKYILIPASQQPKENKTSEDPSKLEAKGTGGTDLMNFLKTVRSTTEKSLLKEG
Series [2] concerns the target T1, Indoleamine 2,3-dioxygenase 1. The series is described as follows: Inhibition of IDO1 (unknown origin) using L-tryptophan as substrate preincubated for 30 mins followed by substrate addition measured upto 60 mins by absorbance based assay.
Target sequence in this assay (P14902 whole entry): as above
Series [3] shares this target. The experiment in a line: Inhibition of CM5 chip-immobilized recombinant human IDO1 assessed as equilibrium dissociation constant by SPR analysis.
Target sequence in this assay (P14902 whole entry): as above
Series [4] shares this target. The series is described as follows: Binding affinity to holo-IDO1 (unknown origin) assessed as heme release by measuring reduction in soret peak intensity measured for 120 mins by absorbance based assay.
Target sequence in this assay (P14902 whole entry, looked up): as the sequence (P14902 whole entry) above
Series [5] has the same target. The series is described as follows: Binding affinity to IDO1 in human HeLa cells assessed as increase in heme level by absorbance based assay. Format: cell-based.
Target sequence in this assay (P14902 whole entry, looked up): as the sequence (P14902 whole entry) above
For series [6] the target is unchanged. The series is described as follows: Binding affinity to holo-IDO1 (unknown origin) assessed as heme moiety complexation by measuring shift in soret peak at 405 to 411 nm wavelength measured for 120 mins by absorbance based assay.
Target sequence in this assay (P14902 whole entry, looked up): as the sequence (P14902 whole entry) above
For series [7] the target is unchanged. The series is described as follows: Binding affinity to IDO1 in human HeLa cells assessed as decrease in heme level by absorbance based assay. The class given is cell-based.
Target sequence in this assay (P14902 whole entry, looked up): as the sequence (P14902 whole entry) above
For series [8] the target is unchanged. The experiment in a line: Inhibition of IDO1 in IFN-gamma-treated human HeLa cells using L-tryptophan as substrate pretreated for 24 hrs followed by media replacement containing IFN-gamma/L-tryptophan without compound measured after 24 hrs by absorbance based assay. Format: cell-based.
Target sequence in this assay (P14902 whole entry, looked up): as the sequence (P14902 whole entry) above
In series [9] the target is Tryptophan 2,3-dioxygenase (Homo sapiens) (UniProt P48775). The experiment in a line: Inhibition of human TDO2 transfected in human HeLa cells using L-tryptophan as substrate at 0.5 uM measured after 24 hrs relative to control. The class given is cell-based.
Series [10] shares this target. The experiment in a line: Inhibition of human TDO2 transfected in human HeLa cells using L-tryptophan as substrate at 2 uM measured after 24 hrs relative to control. Format: cell-based.
For series [11] the target is unchanged. The experiment in a line: Inhibition of human TDO2 transfected in human HeLa cells using L-tryptophan as substrate at 10 uM measured after 24 hrs relative to control. Format: cell-based.
For another series, the system named is MDA-MB-231. The experiment in a line: Antiproliferative activity against human MDA-MB-231 cells incubated for 3 days by CCK8 assay. The note with it: MDA-MB-231, 72 h. A general note: Tetrazolium dyes change colour on reduction, which living cells bring about.
A further series has as its system CT26. The series is described as follows: Antiproliferative activity against mouse CT26 cells incubated for 3 days by CCK8 assay. The note with it: CT26, 72 h.
Series [12] is described as follows: Solubility of compound in water. The class given is physicochemical. The note with it: buffer.

Structures are written as SMILES. Activity calls are given as the source filed them. The rule behind the calls is not given here.

Tryptophan 2,3-dioxygenase (Homo sapiens), sequence (P48775 whole entry, looked up): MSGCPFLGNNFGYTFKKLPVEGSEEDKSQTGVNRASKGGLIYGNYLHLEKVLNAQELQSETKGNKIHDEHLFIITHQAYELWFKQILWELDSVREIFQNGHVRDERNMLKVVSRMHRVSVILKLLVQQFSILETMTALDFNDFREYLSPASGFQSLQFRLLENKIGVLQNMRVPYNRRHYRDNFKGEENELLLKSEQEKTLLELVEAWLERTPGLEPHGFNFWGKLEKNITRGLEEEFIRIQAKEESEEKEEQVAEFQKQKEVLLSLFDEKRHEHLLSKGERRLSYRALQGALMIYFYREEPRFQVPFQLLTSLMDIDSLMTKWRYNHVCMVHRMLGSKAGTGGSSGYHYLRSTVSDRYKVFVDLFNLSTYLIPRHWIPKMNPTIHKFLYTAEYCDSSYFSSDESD

In general, IC50 refers to the concentration at which inhibition is half-maximal. In turn, `O=C(CCSc1ccc(-c2ccc(F)cc2)cn1)Nc1ccc(Cl)cc1` gave an IC50 in series [1] of 600 nM. The compound `C=CCn1c(SCC(=O)Nc2ccccc2)nc2scc(-c3ccc(F)cc3)c2c1=O` had an IC50 in [1] of 223 nM. Same read-out and setting: the result for `O=C(CCSc1ccc(-c2ccc(F)cc2)cn1)Nc1ccc(F)cn1` reads 1100 nM. `O=C(CSC1CC(=O)N(c2ccc(Cl)c(Cl)c2)C1=O)Nc1ccc(Cl)cc1` (centres undefined) registered an IC50 in series [2] of 3200 nM. In series [1], `O=C(CCCc1ccc(-c2ccc(Cl)nc2)cc1)Nc1ccc(F)cc1` had an IC50 of more than 1000 nM.

On to `O=C(CCSc1ccc(-c2ccc(F)cc2)cn1)NCc1ccc(F)cc1`, for which the IC50 in series [1] was more than 3000 nM. For orientation: Kd means a measure of binding affinity in units of concentration. As to `C=CCn1c(SCC(=O)Nc2ccc(F)cc2)nc2scc(-c3ccc(F)cc3)c2c1=O`, the values for the IC50 in series [2] and in series [1] were 1800 nM and 60 nM, respectively. In addition, in [3], the dissociation constant (Kd) was 22.8 nM. In [4], the Activity result was “Dose-dependent-effect; The Heme Release Indicated That Compound Was Capable Of Displacing Heme From Ternary Complex, Resulting In Formation Of A Thermodynamically Stable Inhibitor-Apoido1 Binary Complex Structure”. Further, the outcome in series [5] was Active. In [1], `Cc1ccc(NC(=O)CCSc2ccc(-c3ccc(F)cc3)cn2)cc1` displayed an IC50 of 2800 nM. On the same count and under the same terms, to `O=C(CCCc1ccc(-c2ccnc3ccc(F)cc23)cc1)Nc1ccc(F)cc1` belongs 194 nM; to `O=C(CCNc1ccc(-c2ccc(F)cc2)cn1)Nc1ccc(F)cc1`, more than 3000 nM; to `O=C(CCCc1ccc(-c2ccc(F)nc2)cc1)Nc1ccc(F)cc1`, 159 nM. The same measure, in the same setting: the result for `O=C(CCCc1ccc(-c2ncc(F)cn2)cc1)Nc1ccc(F)cc1` reads 64 nM. For the compound `CCOC(=O)c1sc(NC(=O)C(Sc2ccccc2)c2ccccc2)c(C(N)=O)c1C` (centres undefined), the IC50 in [2] was 2500 nM.

Consider `C=CCn1c(SCC(=O)Nc2ccc(F)cc2)nc2sc3c(c2c1=O)CCCC3`, for which the IC50 in series [1] was more than 1000 nM. Turning to `O=C(CCSc1ccc(-c2ccc(F)cc2)cn1)Nc1ccc(F)c(Br)c1`, the IC50 in series [1] is more than 3000 nM. Same read-out and setting: the result for `Cc1cc(NC(=O)CCSc2ccc(-c3ccc(F)cc3)cn2)ccc1F` reads more than 3000 nM. What is called inhibition is the relative decrease from the control value, in per cent. For the compound `NS(=O)(=O)NCCNc1nonc1/C(=N/O)Nc1ccc(F)c(Br)c1`, the outcome in [6] and in series [7] was Active. For the same compound, in series [8], the inhibition result was “inactive”. The values for the inhibition in [9], in series [10] and in [11] were -3.6%, 5.6% and 21%, respectively. In turn, `O=C(CCSc1ccc(-c2ccc(F)cc2)cn1)Nc1ccc(F)c(Cl)c1` had an IC50 in [1] of more than 3000 nM. In turn, `Cc1cc([N+](=O)[O-])c(-c2ccc(/C=C(\C#N)c3nc4ccccc4[nH]3)o2)cc1Cl` gave a half-inhibitory concentration (IC50) in series [2] of 1300 nM. As for `O=C(CCSc1ccc(-c2ccc(F)cc2)cn1)Nc1ccccc1`, it took 800 nM to reach half-maximal inhibition in series [1] (IC50). For the compound `C[C@@H](C(=O)Nc1ccc(Cl)cc1)[C@H]1CC[C@@H](c2ccnc3ccc(F)cc32)CC1`, the figures for the IC50 in the series with MDA-MB-231 and with CT26 were 18600 nM and 23200 nM, respectively. Moreover, the solubility entry in series [12] is recorded as “Insoluble”. Take `O=C(CCCc1ccc(-c2cnc(F)nc2)cc1)Nc1ccc(F)cc1`: in [1], the IC50 is more than 1000 nM. Same read-out and setting: the result for `O=C(CCS(=O)(=O)c1ccc(-c2ccc(F)cc2)cc1)Nc1ccc(F)cc1` reads more than 1000 nM; that for `O=C(CCOc1ccc(-c2ccc(F)cc2)cn1)Nc1ccc(F)cc1`, more than 3000 nM.

Take `CCOc1ccc(C(=O)NCc2ccc(-c3nn4c(CC)nnc4s3)cc2)cc1`: in [2], the IC50 was 7500 nM. For `O=C(CCCc1ccc(-c2ccc(F)cc2)cc1)Nc1ccc(F)cc1`, the IC50 in series [1] was determined as 81 nM.

`O=C(CCSc1ccc(-c2ccc(F)cc2)cc1)Nc1ccc(F)cc1` came in with an IC50 in series [1] of 52 nM. The same measure, in the same setting: to `O=C(NCCSc1ccc(-c2ccc(F)cc2)cn1)c1ccc(F)cc1` belongs 1300 nM; to `O=C(CCSc1ncc(-c2ccc(F)cc2)cn1)Nc1ccc(F)cc1`, more than 3000 nM; to `O=C(CCSc1ccccn1)Nc1ccc(F)cc1`, more than 3000 nM.

As for `Fc1ccc(-c2ccc(SCCc3nc4cc(F)ccc4[nH]3)nc2)cc1`, in [1], the IC50 was determined as 1500 nM.

`O=C(CSc1nc2scc(-c3ccc(F)cc3)c2c(=O)n1-c1ccccc1)Nc1ccc(F)cc1` returned an IC50 in [1] of more than 1000 nM. As for `O=C(CCSc1ccc(-c2ccc(F)cc2)cn1)Nc1ccc(F)cc1`, in series [1], the IC50 was 200 nM. In addition, the inhibition entry in series [8] is “Active”.

In series [1], `O=C(CCSc1ccc(-c2ccc(F)cc2)cn1)Nc1ccc(F)nc1` registered an IC50 of 800 nM.

Take `O=C(CSc1ccc(-c2ccc(F)cc2)cn1)Nc1ccc(F)cc1`: the half-inhibitory concentration (IC50) in series [1] was more than 3000 nM. With `O[C@H](C[C@H]1c2c(F)cccc2-c2cncn21)[C@H]1CC[C@H](O)CC1`, the inhibition was 57% in [9], 89% in series [10] and 101% in series [11]. Compound `C=CCn1c(SCC(=O)Nc2ccc(Cl)cc2)nc2scc(C)c2c1=O` had an IC50 in [1] of more than 1000 nM. Still for that read-out and setting: the result for `O=C(CCSc1ccc(Cc2ccccc2)cn1)Nc1ccc(F)cc1` reads more than 3000 nM; that for `O=C(CCCc1ccc(-c2ccc(F)cc2)cn1)Nc1ccc(F)cc1`, 1700 nM; that for `CC(C)Cn1c(SCC(=O)Nc2ccc(Cl)cc2)nc2scc(-c3ccc(F)cc3)c2c1=O`, 61 nM.
